Measured values as given in ChEMBL document CHEMBL1201862, “PubChem BioAssay data set” (2004).
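How tested: cells in 96-well plates exposed to compound for 48 hours at five concentrations. GI50 marks 50% less growth.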 Activity calls are given as the source filed them. Cut-off read from the data, not from the text of the source: active = GI50 up to about 1.1 µM and inactive = higher.

Assays:
Assay in all cases: growth of human tumour cells (NCI), 48 h
ACHN = test system: ACHN
CCRF-CEM = test system: CCRF-CEM
COLO 205 = test system: COLO 205
HCT-15 = test system: HCT-15
HOP-92 = test system: HOP-92
IGROV-1 = test system: IGROV-1
M14 = test system: M14
MDA-MB-231 = test system: MDA-MB-231
MDA-MB-435 = test system: MDA-MB-435
MDA-N = test system: MDA-N
NCI-H226 = test system: NCI-H226
NCI-H23 = test system: NCI-H23
RPMI-8226 = test system: RPMI-8226
SF-268 = test system: SF-268
SF-295 = test system: SF-295
SK-MEL-28 = test system: SK-MEL-28
SNB-75 = test system: SNB-75
SW-620 = test system: SW-620
TK-10 = test system: TK-10
UACC-257 = test system: UACC-257

Cc1c(N)nc(C(CC(N)=O)NCC(N)C(N)=O)nc1C(=O)NC(C(=O)NC(C)C(O)C(C)C(=O)NC(C(=O)NCCc1nc(-c2nc(C(=O)NCCCNC(C)c3ccccc3)cs2)cs1)C(C)O)C(OC1OC(CO)C(O)C(O)C1OC1OC(CO)C(O)C(OC(N)=O)C1O)c1c[nH]cn1 (centres undefined)
GI50 (ACHN): 0.0208 µM (active)
GI50 (CCRF-CEM): 4.33 µM (inactive)
GI50 (COLO 205): 11.3 µM (inactive)
GI50 (HCT-15): 5.24 µM
GI50 (HOP-92): 0.19 µM (active)
GI50 (IGROV-1): 9.51 µM (inactive)
GI50 (M14): 3.27 µM (inactive)
GI50 (MDA-MB-231): > 50 µM (inactive)
GI50 (MDA-MB-435): > 50 µM (inactive)
GI50 (MDA-N): > 50 µM (inactive)
GI50 (NCI-H226): 0.184 µM (active)
GI50 (NCI-H23): 0.753 µM (active)
GI50 (RPMI-8226): 3.21 µM (inactive)
GI50 (SF-268): 2.9 µM (inactive)
GI50 (SF-295): 0.163 µM (active)
GI50 (SK-MEL-28): 31.5 µM (inactive)
GI50 (SNB-75): 0.296 µM (active)
GI50 (SW-620): 17.7 µM (inactive)
GI50 (TK-10): 40.5 µM (inactive)
GI50 (UACC-257): 22.3 µM (inactive)

Cc1cc(OCc2nc(N)nc(N)c2-c2ccc(Cl)c(Cl)c2)ccc1[N+](=O)[O-]
GI50 (ACHN): 0.0746 µM (active)
GI50 (CCRF-CEM): 0.0235 µM (active)
GI50 (COLO 205): 0.705 µM (active)
GI50 (HCT-15): 0.0893 µM
GI50 (HOP-92): 4.92 µM (inactive)
GI50 (IGROV-1): 0.0723 µM (active)
GI50 (M14): 0.104 µM (active)
GI50 (MDA-MB-231): 0.384 µM (active)
GI50 (MDA-MB-435): 0.0721 µM (active)
GI50 (MDA-N): 0.0776 µM (active)
GI50 (NCI-H226): 8.67 µM (inactive)
GI50 (NCI-H23): 0.141 µM (active)
GI50 (RPMI-8226): 1.46 µM (inactive)
GI50 (SF-268): 0.771 µM (active)
GI50 (SF-295): 0.0678 µM (active)
GI50 (SK-MEL-28): 0.531 µM (active)
GI50 (SNB-75): 2.1 µM (inactive)
GI50 (SW-620): 0.235 µM (active)
GI50 (TK-10): 0.401 µM (active)
GI50 (UACC-257): 0.0451 µM (active)

CC1(C)CC(O)C2=C(O1)C(=O)c1ncccc1C2=O (centres undefined)
GI50 (ACHN): 2.93 µM (inactive)
GI50 (CCRF-CEM): 2.19 µM (inactive)
GI50 (COLO 205): 2.32 µM (inactive)
GI50 (HCT-15): 4.02 µM
GI50 (HOP-92): 2.28 µM (inactive)
GI50 (IGROV-1): 2.17 µM (inactive)
GI50 (M14): 1.96 µM (inactive)
GI50 (MDA-MB-231): 2.29 µM (inactive)
GI50 (MDA-MB-435): 1.71 µM (inactive)
GI50 (MDA-N): 1.75 µM (inactive)
GI50 (NCI-H226): 1.87 µM (inactive)
GI50 (NCI-H23): 1.64 µM (inactive)
GI50 (RPMI-8226): 2.48 µM (inactive)
GI50 (SF-268): 2 µM (inactive)
GI50 (SF-295): 1.83 µM (inactive)
GI50 (SK-MEL-28): 1.69 µM (inactive)
GI50 (SNB-75): 0.53 µM (active)
GI50 (SW-620): 1.87 µM (inactive)
GI50 (TK-10): 6.46 µM (inactive)
GI50 (UACC-257): 1.71 µM (inactive)

O=C1C=CC(=O)c2c(O)ccc(O)c21 [NAPHTHAZALIN]
GI50 (ACHN): 1.21 µM (inactive)
GI50 (CCRF-CEM): 0.155 µM (active)
GI50 (COLO 205): 0.807 µM (active)
GI50 (HCT-15): 0.753 µM
GI50 (HOP-92): 1.69 µM (inactive)
GI50 (IGROV-1): 7.96 µM (inactive)
GI50 (M14): 0.581 µM (active)
GI50 (MDA-MB-231): 2.22 µM (inactive)
GI50 (MDA-MB-435): 3.68 µM (inactive)
GI50 (MDA-N): 2.75 µM (inactive)
GI50 (NCI-H226): 9.25 µM (inactive)
GI50 (NCI-H23): 2.61 µM (inactive)
GI50 (RPMI-8226): 0.436 µM (active)
GI50 (SF-268): 2.52 µM (inactive)
GI50 (SF-295): 7.91 µM (inactive)
GI50 (SK-MEL-28): 1.34 µM (inactive)
GI50 (SNB-75): 2.09 µM (inactive)
GI50 (SW-620): 0.377 µM (active)
GI50 (TK-10): 1.26 µM (inactive)
GI50 (UACC-257): 1.07 µM (active)

Cc1c(N)nc([C@H](CC(N)=O)NC[C@H](N)C(N)=O)nc1C(=O)N[C@H](C(=O)N[C@H](C)[C@@H](O)[C@H](C)C(=O)N[C@H](C(=O)NCCc1nc(-c2nc(C(=O)NCCC[S+](C)C)cs2)cs1)[C@@H](C)O)C(OC1OC(CO)C(O)C(O)C1OC1OC(CO)C(O)C(OC(N)=O)C1O)c1c[nH]cn1 (some centres undefined)
GI50 (ACHN): 0.00802 µM (active)
GI50 (CCRF-CEM): 6.75 µM (inactive)
GI50 (COLO 205): 6.05 µM (inactive)
GI50 (HCT-15): 3.27 µM
GI50 (HOP-92): 0.0841 µM (active)
GI50 (IGROV-1): 2.29 µM (inactive)
GI50 (M14): 1.56 µM (inactive)
GI50 (MDA-MB-231): 15.8 µM (inactive)
GI50 (MDA-MB-435): 19.6 µM (inactive)
GI50 (MDA-N): 14.8 µM (inactive)
GI50 (NCI-H226): 0.222 µM (active)
GI50 (NCI-H23): 0.637 µM (active)
GI50 (RPMI-8226): 17 µM (inactive)
GI50 (SF-268): 1.15 µM (inactive)
GI50 (SF-295): 0.114 µM (active)
GI50 (SK-MEL-28): 18.2 µM (inactive)
GI50 (SNB-75): 0.426 µM (active)
GI50 (SW-620): 8.18 µM (inactive)
GI50 (TK-10): 10.8 µM (inactive)
GI50 (UACC-257): 12 µM (inactive)

COc1cc2c[n+](C)c3c4cc5c(cc4ccc3c2cc1OC)OCO5 [NITIDINE CHLORIDE]
GI50 (ACHN): 71.9 µM (inactive)
GI50 (CCRF-CEM): 0.752 µM (active)
GI50 (COLO 205): 1.66 µM (inactive)
GI50 (HCT-15): > 100 µM
GI50 (HOP-92): 2.07 µM (inactive)
GI50 (IGROV-1): 1.03 µM (active)
GI50 (M14): 17.1 µM (inactive)
GI50 (MDA-MB-231): 2.62 µM (inactive)
GI50 (MDA-MB-435): > 100 µM (inactive)
GI50 (MDA-N): 64 µM (inactive)
GI50 (NCI-H226): 3.61 µM (inactive)
GI50 (NCI-H23): 1.07 µM (active)
GI50 (RPMI-8226): 2.06 µM (inactive)
GI50 (SF-268): 0.126 µM (active)
GI50 (SF-295): 5.93 µM (inactive)
GI50 (SK-MEL-28): 9.38 µM (inactive)
GI50 (SNB-75): 0.22 µM (active)
GI50 (SW-620): 1.14 µM (inactive)
GI50 (TK-10): 29.3 µM (inactive)
GI50 (UACC-257): 26.1 µM (inactive)

O=C1c2ccccc2C(=O)c2c(NCCNC(=O)C3CCCN3)ccc(NCCNC(=O)C3CCCN3)c21 (centres undefined)
GI50 (ACHN): 53.7 µM (inactive)
GI50 (CCRF-CEM): 18.8 µM (inactive)
GI50 (COLO 205): 24.5 µM (inactive)
GI50 (HCT-15): > 100 µM
GI50 (HOP-92): 41 µM (inactive)
GI50 (IGROV-1): 62.7 µM (inactive)
GI50 (M14): > 100 µM (inactive)
GI50 (MDA-MB-231): 23.7 µM (inactive)
GI50 (MDA-MB-435): 55.8 µM (inactive)
GI50 (MDA-N): 46.5 µM (inactive)
GI50 (NCI-H226): > 100 µM (inactive)
GI50 (NCI-H23): 52.8 µM (inactive)
GI50 (RPMI-8226): 22.6 µM (inactive)
GI50 (SF-268): 34.1 µM (inactive)
GI50 (SF-295): > 100 µM (inactive)
GI50 (SK-MEL-28): 41.7 µM (inactive)
GI50 (SNB-75): 53.3 µM (inactive)
GI50 (SW-620): 40.4 µM (inactive)
GI50 (TK-10): > 100 µM (inactive)
GI50 (UACC-257): > 100 µM (inactive)

CC(=O)NC1C(OCc2ccccc2)OC(CO)C(O)C1OC(C)C(=O)NC(C)C(=O)NC(CCC(=O)NCCCNc1c2ccccc2nc2cccc([N+](=O)[O-])c12)C(N)=O (centres undefined)
GI50 (ACHN): 0.792 µM (active)
GI50 (CCRF-CEM): 7.48 µM (inactive)
GI50 (COLO 205): 0.57 µM (active)
GI50 (HCT-15): 1.67 µM
GI50 (HOP-92): 1.99 µM (inactive)
GI50 (IGROV-1): 19.1 µM (inactive)
GI50 (M14): 1.97 µM (inactive)
GI50 (MDA-MB-231): 1.36 µM (inactive)
GI50 (MDA-MB-435): 1.16 µM (inactive)
GI50 (MDA-N): 1.25 µM (inactive)
GI50 (NCI-H226): 2.79 µM (inactive)
GI50 (NCI-H23): 2.55 µM (inactive)
GI50 (RPMI-8226): 0.59 µM (active)
GI50 (SF-268): 1.38 µM (inactive)
GI50 (SF-295): 3.26 µM (inactive)
GI50 (SK-MEL-28): 2.58 µM (inactive)
GI50 (SNB-75): 1.99 µM (inactive)
GI50 (SW-620): 0.229 µM (active)
GI50 (TK-10): 2.94 µM (inactive)
GI50 (UACC-257): 2 µM (inactive)

COc1cc(C=C2N=C(c3ccccc3)N(n3c(-c4ccccc4)nc4ccccc4c3=O)C2=O)cc(OC)c1OC
GI50 (ACHN): 28.7 µM (inactive)
GI50 (CCRF-CEM): 48.5 µM (inactive)
GI50 (COLO 205): 22 µM (inactive)
GI50 (HCT-15): 31.5 µM
GI50 (HOP-92): 14.5 µM (inactive)
GI50 (IGROV-1): 32.5 µM (inactive)
GI50 (M14): 27.2 µM (inactive)
GI50 (MDA-MB-231): 21.9 µM (inactive)
GI50 (MDA-MB-435): 24.3 µM (inactive)
GI50 (MDA-N): 29 µM (inactive)
GI50 (NCI-H226): 25.6 µM (inactive)
GI50 (NCI-H23): 19.1 µM (inactive)
GI50 (RPMI-8226): > 10 µM (inactive)
GI50 (SF-268): 28.4 µM (inactive)
GI50 (SF-295): 19.5 µM (inactive)
GI50 (SK-MEL-28): 17.7 µM (inactive)
GI50 (SNB-75): 23.1 µM (inactive)
GI50 (SW-620): 31.9 µM (inactive)
GI50 (TK-10): 45.9 µM (inactive)
GI50 (UACC-257): 20.1 µM (inactive)

CCN(CC)c1ccc(/C=C2\CCc3ccc([N+](=O)[O-])cc3C2=O)cc1
GI50 (ACHN): 8.85 µM (inactive)
GI50 (CCRF-CEM): 0.217 µM (active)
GI50 (COLO 205): 4.01 µM (inactive)
GI50 (HCT-15): 0.64 µM
GI50 (HOP-92): > 100 µM (inactive)
GI50 (IGROV-1): 7.06 µM (inactive)
GI50 (M14): 3.54 µM (inactive)
GI50 (MDA-MB-231): 2.61 µM (inactive)
GI50 (MDA-MB-435): 0.169 µM (active)
GI50 (MDA-N): 0.17 µM (active)
GI50 (NCI-H226): > 100 µM (inactive)
GI50 (NCI-H23): 7.62 µM (inactive)
GI50 (RPMI-8226): 0.391 µM (active)
GI50 (SF-268): 14.4 µM (inactive)
GI50 (SF-295): 1.4 µM (inactive)
GI50 (SK-MEL-28): 3.46 µM (inactive)
GI50 (SNB-75): 2.52 µM (inactive)
GI50 (SW-620): 0.297 µM (active)
GI50 (TK-10): 2.86 µM (inactive)
